In ChEMBL document CHEMBL1201862, “PubChem BioAssay data set” (2004):
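The compound was tested at five concentrations on cells cultured in 96-well plates, with a 48-hour exposure period. GI50: concentration for 50% inhibition of growth.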 Active and inactive are the calls of the source. No stated cut-off is given here; in the data, active = GI50 up to about 1.1 µM and inactive = higher.

Experiments:
Assay in all cases: NCI tumour cell line growth inhibition, 48 h
786-0 = system: 786-0
LOX IMVI = system: LOX IMVI
SN12C = system: SN12C
SF-268 = system: SF-268
COLO 205 = system: COLO 205
EKVX = system: EKVX
NCI-H522 = system: NCI-H522
HCC 2998 = system: HCC 2998
SF-539 = system: SF-539
CCRF-CEM = system: CCRF-CEM
HOP-62 = system: HOP-62
RXF 393 = system: RXF 393
SW-620 = system: SW-620
HT-29 = system: HT-29
K562 = system: K562
SK-MEL-28 = system: SK-MEL-28
NCI-H226 = system: NCI-H226

Measured: GI50

Cc1nnc2n1N=C(c1ccccc1)C(c1ccccc1)S2 (stereo not drawn)
inactive: 786-0 27 µM | LOX IMVI 45.2 µM | SN12C 59.6 µM | SF-268 44.9 µM | COLO 205 21.3 µM | EKVX 64 µM | NCI-H522 24.6 µM | HCC 2998 34.8 µM | SF-539 31 µM | CCRF-CEM 19.3 µM | HOP-62 72.3 µM | RXF 393 36.1 µM | SW-620 11.2 µM | HT-29 34.8 µM | K562 31.8 µM

C=C(/C=C/C=C(\CO)CCC=C(C)C)[C@H]1CCC2([C@H](CCCO)/C(=C(/C)C=O)CC[C@]2(C)O)[C@H]1O (stereo partly drawn)
inactive: 786-0 > 100 µM | LOX IMVI 54.2 µM | COLO 205 26.3 µM | EKVX 83.8 µM | HCC 2998 > 100 µM | SF-539 83.4 µM | CCRF-CEM 38.2 µM | HOP-62 75.9 µM | SW-620 > 100 µM | HT-29 > 100 µM | SK-MEL-28 > 100 µM | K562 51.4 µM

N/C=N/S(=O)(=O)c1ccc(NC(=O)COC(=O)c2cccc3c(=O)c4ccccc4[nH]c23)cc1
inactive: NCI-H226 > 100 µM | 786-0 > 100 µM | LOX IMVI > 100 µM | SN12C > 100 µM | COLO 205 > 100 µM | EKVX > 100 µM | NCI-H522 > 100 µM | SF-539 > 100 µM | CCRF-CEM > 100 µM | HOP-62 > 100 µM | RXF 393 > 100 µM | SW-620 > 100 µM | HT-29 > 100 µM | SK-MEL-28 > 100 µM | K562 > 100 µM

O=S(O)CCCCSSCCCCSSCCCCS(=O)O
inactive: 786-0 > 100 µM | LOX IMVI 12.8 µM | SN12C 42.7 µM | SF-268 27.4 µM | COLO 205 22.6 µM | EKVX 6.38 µM | NCI-H522 13 µM | HCC 2998 > 100 µM | SF-539 66.2 µM | CCRF-CEM 5.9 µM | RXF 393 27.2 µM | SW-620 24.4 µM | HT-29 > 10 µM | SK-MEL-28 20.7 µM | K562 15 µM

COc1ccc2ccccc2c1C1OC(=O)c2ccccc21 (stereo not drawn)
inactive: NCI-H226 > 100 µM | 786-0 > 100 µM | LOX IMVI > 100 µM | SN12C > 100 µM | SF-268 > 100 µM | COLO 205 > 100 µM | EKVX > 100 µM | NCI-H522 63.5 µM | HCC 2998 > 100 µM | SF-539 > 100 µM | CCRF-CEM > 100 µM | HOP-62 > 100 µM | SW-620 87.9 µM | HT-29 > 100 µM | K562 33 µM

Nc1nc2c(-c3ccc([N+](=O)[O-])cc3)nnn2c2ccccc12
inactive: NCI-H226 > 100 µM | 786-0 84.5 µM | LOX IMVI > 100 µM | SN12C > 100 µM | SF-268 > 100 µM | COLO 205 > 100 µM | EKVX > 100 µM | HCC 2998 > 100 µM | SF-539 > 100 µM | CCRF-CEM > 10 µM | HOP-62 56.5 µM | SW-620 > 100 µM | HT-29 > 100 µM | SK-MEL-28 > 100 µM | K562 > 100 µM

C[C@]12CCC(=O)C=C1CC[C@@H]1C2CC[C@]2(C)c3nn(-c4ccccc4)nc3CC12 (stereo partly drawn)
inactive: NCI-H226 > 100 µM | 786-0 > 100 µM | LOX IMVI > 100 µM | SN12C > 100 µM | SF-268 > 100 µM | COLO 205 > 100 µM | EKVX > 100 µM | HCC 2998 > 100 µM | SF-539 > 100 µM | CCRF-CEM > 100 µM | HOP-62 > 100 µM | RXF 393 > 100 µM | SW-620 > 100 µM | HT-29 > 100 µM | SK-MEL-28 > 100 µM | K562 > 100 µM
